From patent US20070299084A1, “Indole Derivatives Useful for Treating Resistance to Antitumor Agents” (NIKEM RESE S.R.L., priority 2004, published 2007)
Marks after values point to notes of the source that are not given here.

Assays:
[1] = test system: HT29/Mit human colon carcinoma xenografts; test: HT29/Mit human colon carcinoma xenografts, antitumor activity; format: in vivo, athymic Swiss nude mice; settings: HT29/Mit xenograft, p.o.; topotecan 15 mg/Kg every 4 days for 3 administrations; compound of example 2 30 mg/kg; alone or combined
Experimental: Female athymic Swiss nude mice (8-10 weeks old) (Charles River, Calco, Italy) were used for the experiments. The animals were maintained at constant temperature and humidity, and were allowed to eat and drink freely. The experimental protocol was approved by the Ethics Committee for Animal Experimentation of the Istituto Nazionale Tumori of Milan.
The antitumour effectiveness of the compounds of the invention under discussion was tested on athymic mouse models implanted with HT29 and/or HT29/Mit tumour cells: this latter variety is highly resistant to topotecan treatment. The tumour cells were implanted in vivo via subcutaneous injection of 10^7 cells taken from in vitro cultures. Randomized groups of five mice with bilateral subcutaneous tumours were used for the experiment.
Topotecan or other known antitumour agents (dissolved in distilled water or an appropriate solvent) and the compounds of the invention (dissolved in Cremophor EL:ethanol:saline solution in the proportions 5:5:90, or in an appropriate solvent) were administered orally from the third day, alone or in combination, in agreement with a treatment scheme selected in an appropriate manner depending on the type of compound to be studied.
The weight (or volume) of the tumour in treated mice compared to controls is represented graphically on the y-axis against time (x-axis).

[2] = test system: HCT116 cells (human colon carcinoma); test: Antiproliferative activity, 72 h treatment, SRB assay, HCT116; format: cell-based
Experimental: HCT116 maintained in RPMI 1640 medium+10% FCS.
(§1) The cells (HT29 and HT29/Mit:. 40,000 cells/ml, LoVo, LoVo/Dx and HCT116: 50,000 cells/ml) are seeded in 100 μl of the respective culture media in 96-well plates. 24 hours after seeding, an aliquot (10 μl) of drug at the various concentrations is added. In the samples in which the effect of the combination of two compounds is to be tested the inhibitor is added immediately before the cytotoxic. For each dose or combination of doses/drugs the effect of the treatment is determined in 4-8 replicates.
(§2) After 72 hours of treatment the antiproliferative effect is evaluated using the sulforhodamine B (SRB) assay: the cells are fixed by adding 25 μl of 50% TCA to each well and left for 1 hour at 4° C. After washing them with water and allowing them to dry, 100 μl of 0.4% SRB in 1% acetic acid are added and left for 30 minutes at room temperature. After 4 washes in 1% acetic acid, they are left to dry, then the dye fixed by the proteins is dissolved under basic conditions with 100 μl 10 mM cold Tris and the solution is read using a spectrophotometer at 550 nm.
(§3) Percentage cell growth is calculated as the optical density of treated samples compared to the optical density of controls (untreated cells).
(§4) The Combination Index (C.I.) was determined according to Kern's method, 1988 (who continued from Drewinko B, 1976) (Kern D. H., Cancer Res. 48, 117-121, 1988; Drewinko B., Cancer Biochem. Biophys. 1, 187-195, 1976) by means of the following formula: […], where SFa and SFb are the fractions of cells surviving to treatment with compound a and b, respectively; SFab is the fraction surviving to the combination of compounds a and b.

[3] = test system: H460 primary tumor; test: H460 human non-small cell lung carcinoma xenograft, antitumor activity on the primary tumor; format: in vivo, athymic Swiss nude mice; settings: H460 s.c., p.o. for 8 weeks, topotecan 1 mg/kg, compound of example 2 30 mg/kg
Experimental: Female athymic Swiss nude mice (8-10 weeks old) (Charles River, Calco, Italy) were used for the experiments, as described above.
H460 cells were injected i.p. into nude mice, adapted to grow as ascitis and maintained in vivo by i.p. passages (5×10^6 cells/mouse in 0.5 ml PBS) (Pratesi G., Br. J. Cancer 63, 71-74, 1991). Briefly, cells were collected from the donor mice about 7 days after inoculum. After washing, cell number and viability were determined by trypan blue exclusion. Such procedure allowed to obtain a single cell suspension easily available for s.c or i.v. injection.
The effects of the compounds of the invention and/or topotecan on the growth of primary tumors and spontaneous lung metastasis were tested in mice inoculated s.c. in the right flank with H460 ascitic tumor cells (2×10^6/mouse). Each control or drug-treated group included 9-11 mice. The s.c. tumor growth was followed by biweekly measurements of tumor diameters with a Vernier caliper. Drug treatment was delivered orally, for 8 weeks, from day 1. Topotecan was delivered at the dose of 1 mg/kg and compounds of the invention were delivered at the dose of 30 mg/kg; in the combination group the compounds of the invention were delivered almost 1 hour after topotecan treatment. Control mice were solvent-treated orally in parallel with drug treatments.
Drug efficacy was assessed as mean percentage tumor weight inhibition in drug-treated versus control mice expressed as tumor weight inhibition % (TWI %)=100−(mean tumor weight treated/mean tumor weight control×100), evaluated during and after drug treatment. Drug tolerability was assessed in tumor-bearing mice as either lethal toxicity, i.e., any death in treated mice occurring before any control death, or percentage body weight loss (BWL %)=100−(body weight on day x/body weight on day 1×100), where x represents a day after or during the treatment period.

[4] = test system: HT29/Mit cells (mitoxantrone-resistant human colon carcinoma, BCRP overexpression); test: Antiproliferative activity, 72 h treatment, SRB assay, HT29/Mit
Experimental: HT29 and HT29/Mit (line obtained by prolonged exposure to mitoxantrone, and characterised by overerexpression of BCRP, which confers cross resistance to topotecan, irinotecan and to its metabolite SN38): maintained in McCoy 5A medium+10% FCS.
as §1, §2, §3, §4

[5] = test system: H460 spontaneous lung metastasis; test: H460 xenograft, spontaneous lung metastasis (antimetastatic activity); format: in vivo, athymic Swiss nude mice; settings: topotecan 1 mg/kg, compound of example 2 30 mg/kg p.o.
Experimental: At day 63, tumor-bearing mice were sacrificed by cervical dislocation and their lungs were removed and weighed. Lung lobes were spliced between two glass slides and the metastatic nodules were macroscopically counted against a bright light (Corti C, J. Cancer Res. Clin. Oncol. 122, 154-60, 1996). […] Reading of metastasis was performed by two independent observers, unaware of the experimental group, with an interobserver reproducibility >95%. The metastatic nature of these areas was confirmed by histological analysis of digital images obtained by Image Analysis System software (Delta System, Rome, Italy).

[6] = test system: HT29 cells (human colon carcinoma); test: Antiproliferative activity, 72 h treatment, SRB assay, HT29; format: cell-based

CCOc1cc(C(=O)NC2CC(C)(C)NC(C)(C)C2)ccc1-c1cc2cc(Cl)c(Cl)cc2[nH]1 [Example 2]
Inhibition of tumour growth [1]: poorly effective | Interaction with cisplatin ([2]; HCT116 line, subtoxic and subactive concentrations): significant synergistic effect | IC50 ([2]; Homo sapiens, HCT-116, 72 h, read-out: Antiproliferative activity (IC50 ± S.D., μM) HCT116): 2.4 ± 0.9 µM | LCK (Log10 Cell Kill) [3]: 0.6 | Max TWI (day 56) (Maximal Tumor weight inhibition achieved) ([3]; listed as Compound of example 2): 58* % | Max TWI (day 56) (Maximal Tumor weight inhibition achieved) ([3]; listed as compound of example 2): 58% | Effect on antiproliferative activity of topotecan ([4]; HT29/Mit model, subtoxic and subactive concentrations (<1 μM) of compound of example 2): enhanced antiproliferative activity of topotecan | Effect on cell growth of compound of example 2 alone ([4]; HT29/Mit, 72 hours, 0.5 μM): does not itself inhibit cell growth | IC50 ([4]; Homo sapiens, HT-29, 72 h, read-out: Antiproliferative activity (IC50 ± S.D., μM) HT-29/Mit): 0.9 ± 0.2 µM | Lung No. Metastasis (range) ([5]; day 63): reduced | Lung Weight (mg) (mean ± S.D.) ([5]; day 63): 177 ± 30 mg | Lung No. Metastasis (range) ([5]; day 63, listed as Compound of example 2): 15 (3-56) | Lung metastasis Inhibition % ([5]; inhibition of number of metastasis vs controls): 42% | Effect on antiproliferative activity of topotecan ([6]; HT29 model, subtoxic and subactive concentrations (<1 μM) of compound of example 2): enhanced antiproliferative activity of topotecan | IC50 ([6]; Homo sapiens, HT-29, 72 h, read-out: Antiproliferative activity (IC50 ± S.D., μM) HT-29): 1 ± 0.1 µM | Antiproliferative activity in the human tumour cell lines used (summary of Table 1) ([6]; all lines: 72 hours (HT29, HT29/Mit, LoVo, LoVo/DX, HCT116) or 48 hours (HepG2, SHSY-5Y, SK-N-BE(2), A2780)): high antiproliferative potency
